Consider 77 compounds from PubChem BioAssay AID1996.

Structures are written as SMILES. In brackets after ≈: the same amount, converted by molar mass.

The conditions of this data set: buffer; pH 7.4; 200.0 µM.
In general, solubility (kinetic) refers to the concentration staying in solution when a stock, usually in DMSO, is diluted into the medium. On to `O=S(=O)(CCNCc1cccs1)c1ccc(Cl)cc1`, for which the kinetic solubility is 32.5 µg/mL (≈ 103 µM).
To `O=C1NC2=C(C(=O)CCC2)C(c2ccc(OC(F)F)cc2)N1` (configuration not stated) belongs 41.8 µg/mL (≈ 136 µM); to `COc1ccc(NC(=O)Nc2cc(C(C)(C)C)on2)cc1OC`, over 47.9 µg/mL.
The value for `CCN(CC)CCn1c(-c2ccc(C)cc2)nc(=S)c2c1CC(C)(C)OC2` was over 57.8 µg/mL.
The value for `O=C(O)/C=C/c1cnc2ccccc2n1` was over 30 µg/mL; that for `COc1ccc(CNc2ncc(-c3ccccc3)n2C)cc1` was 28.6 µg/mL (≈ 97.5 µM); that for `CCCNC(=O)N1CCCC(C(N)=O)C1` (configuration not stated) was over 32 µg/mL.
`Cc1cccc(NCc2ccccc2)c1` yielded a kinetic solubility of 0.8 µg/mL (≈ 4.06 µM).
The compound `NC(=O)C1=CN(Cc2ccc(Cl)cc2)CCC1C(F)(F)F` (configuration not stated) yielded a kinetic solubility of over 47.8 µg/mL.
Compound `CCN(CC(=O)Nc1c(F)cccc1F)C(=O)c1ccc(C#N)cc1` came in with a solubility (kinetic) of over 51.5 µg/mL.
The value for `Nc1nc(SCC(=O)N2CCOCC2)[nH]c(=O)c1-c1ccccc1` was over 52 µg/mL.
To `CS(=O)(=O)O.OC(CCN1CCCCC1)(c1ccccc1)c1ccccc1` belongs over 58.7 µg/mL.
To `CCOc1ccc(N2CC(C(=O)N3CC(C)OC(C)C3)CC2=O)cc1` (configuration not stated) belongs over 52 µg/mL; to `CCn1ncc(-c2ccnc3cc(C(=O)O)nn23)c1C`, over 40.7 µg/mL; to `CC1Cc2ccccc2N1C(=O)CN1CCCCC1.Cl` (configuration not stated), 39.3 µg/mL.
Take `COc1ccc(NC(=S)Nc2ccccc2Cl)cn1`: the kinetic solubility is 38.8 µg/mL (≈ 132 µM).
To `O=C(O)CCC(NC(=S)Nc1ccccc1)C(=O)O` (configuration not stated) belongs over 42.3 µg/mL; to `Cc1nc2c(C(F)(F)F)cccc2c2c1CCS2`, under 0.6 µg/mL; to `CCc1ccc(NC(=O)COC(=O)/C=C/c2ccco2)cc1`, 4.8 µg/mL (≈ 16 µM).
`O=C(O)CCCCCCCCCC[n+]1ccccc1.[Br-]` displayed a solubility (kinetic) of 47.9 µg/mL.
As to `Cc1ccc(SCCNC(=O)c2ccc([N+](=O)[O-])c(C)c2)cc1`, the solubility (kinetic) was 9.5 µg/mL (≈ 28.8 µM).
To `Cc1cccc(C(=O)N2CCC(c3nc4ccccc4s3)CC2)c1` belongs over 50.5 µg/mL.
To `CC(C)(C)C(=O)OCc1nc(-c2ccc(O)c(O)c2)cs1` belongs 39.5 µg/mL (≈ 129 µM); to `O=S(=O)(Nc1ncccn1)c1ccccc1`, over 35.3 µg/mL.
To `Cc1cc(Nc2ccc(Cl)cc2)nc(-c2ccccc2O)n1` belongs 0.2 µg/mL (≈ 0.641 µM); to `CCOc1ccc(S(=O)(=O)N2CCCCC2)c(C)c1C`, 9.7 µg/mL (≈ 32.6 µM); to `COc1cccc(NC(=O)c2ccccc2C(F)(F)F)c1`, over 44.3 µg/mL.
In turn, `O=C(Nc1ccc(F)c(Cl)c1)c1cc(-c2ccco2)on1` gave a solubility (kinetic) of under 0.3 µg/mL.
The value for `CC(CCc1ccccc1)NC(=O)CN1CCc2ccccc2C1` (configuration not stated) was 47.3 µg/mL (≈ 147 µM); that for `Nc1ccc(CN2CCOCC2)cc1` was over 28.8 µg/mL.
The value for `CCC(Oc1ccc(C)c(C)c1)C(=O)N1CCCN(C)CC1` (configuration not stated) was over 45.7 µg/mL; that for `COC(=O)c1ccc(CNC(=O)COC(=O)/C=C/c2ccc(OC)c(OC)c2)cc1` was 6.6 µg/mL (≈ 16 µM); that for `Nc1nccnc1C(=O)OCC(=O)c1ccc[nH]1` was over 36.9 µg/mL.
Compound `Cc1cccc(C)c1NC(=O)N1CC(C)OC(C)C1` (configuration not stated) had a solubility (kinetic) of over 39.4 µg/mL.
To `CCC(Oc1ccccc1OC)C(=O)Nc1ccc2c(c1)OCO2` (configuration not stated) belongs 26.3 µg/mL (≈ 79.9 µM); to `CCS(=O)(=O)N1CCC(C(=O)Nc2cc(C)ccc2O)CC1`, over 49 µg/mL; to `Clc1nc(CN2CCCCC2)nc2sc3c(c12)CCC3`, over 46.2 µg/mL.
To `Oc1ccc(NCc2cccs2)cc1` belongs 26.5 µg/mL (≈ 129 µM).
The value for `Cc1cccc(S(=O)(=O)Nc2ccc(S(=O)(=O)Nc3nccs3)cc2)c1` was over 61.4 µg/mL; that for `CCN(c1ccccc1)S(=O)(=O)c1ccc2c(c1)OCCO2` was 26.3 µg/mL (≈ 82.3 µM); that for `CCOc1ccc(S(=O)(=O)NCc2cccnc2)cc1` was over 43.9 µg/mL.
The compound `CC(=O)Nc1ccc(SC(C)C(=O)NC2CCCC2)cc1` (configuration not stated) registered a kinetic solubility of over 46 µg/mL.
The value for `Cc1ccc(N2CCN(C(=O)c3cccs3)CC2)c(C)c1` was 2.3 µg/mL (≈ 7.66 µM); that for `COc1cc2ncnc(N[C@H](C)c3ccccc3)c2cc1OC` was over 46.4 µg/mL.
The value for `COc1cc(C(NC(C)=O)NC(C)=O)ccc1OCc1ccccc1` was over 51.4 µg/mL; that for `CCOC(=O)c1cccc(NC(=S)NC(=O)c2cccnc2)c1` was 8.1 µg/mL (≈ 24.6 µM); that for `COc1ccc(NC(=S)Nc2cccc(C(C)=O)c2)cc1OC` was over 49.6 µg/mL.
In turn, `O=c1[nH]c(/C=C/c2ccccc2Cl)nc2ccccc12` had a kinetic solubility of under 0.3 µg/mL.
Regarding `Cc1ccc(CNC(=O)Cn2cccc2)cc1`, the kinetic solubility is over 34.2 µg/mL.
The value for `C=CCN1C(=O)C2(OCCCO2)c2ccccc21` was 36.7 µg/mL (≈ 150 µM); that for `COc1ccc(C)cc1NC(=S)NC12CN3CN(CN(C3)C1)C2` was over 50 µg/mL.
The value for `CC(C)C1Cc2[nH]c(=O)c(C#N)cc2CO1` (configuration not stated) was over 32.7 µg/mL; that for `COC(=O)c1c(NC(=O)C2=COCCO2)sc(C)c1C` was 0.7 µg/mL (≈ 2.35 µM).
On to `COc1cc(NC(=O)/C=C/c2ccccc2)c(C(=O)O)cc1OC`, for which the solubility (kinetic) was over 49.1 µg/mL.
To `Cc1ccc(N2C(=O)C3CCCN3C2=S)cc1C` (configuration not stated) belongs over 39.1 µg/mL; to `Cc1nc2ccccc2n1CC(=O)c1ccccc1`, 37 µg/mL (≈ 148 µM); to `CCc1ccc(N2CC(C(=O)Nc3cc(C)on3)CC2=O)cc1` (configuration not stated), 26 µg/mL (≈ 83 µM).
Take `O=C(CSc1ccsc1[N+](=O)[O-])NCc1ccccc1`: the solubility (kinetic) came to 9 µg/mL (≈ 29.2 µM).
To `O=C(O)C(=O)O.c1ccc(CCNC2CCCCCC2)cc1` belongs 45.3 µg/mL; to `C=CCC(O)(CC=C)C(C)N.Cl` (configuration not stated), over 28.8 µg/mL; to `CCOC(=O)C1CCN(C(=O)COc2ccc3c(c2)OCO3)CC1`, over 50.3 µg/mL.
On to `Cc1cccn2cc(CCNS(=O)(=O)c3cccs3)nc12`, for which the solubility (kinetic) was 45.6 µg/mL (≈ 142 µM).
Take `CCc1c(C)c2cc(Cl)c(O)c(CN3CCCC3)c2oc1=O`: the solubility (kinetic) turned out to be 30.5 µg/mL (≈ 94.8 µM).
The value for `S=C(Nc1ccc(Cl)cc1Cl)N1CCN(c2ccccn2)CC1` was 1 µg/mL (≈ 2.72 µM); that for `Nc1ccc(S(=O)(=O)N2CCc3ccccc32)cc1` was over 41.2 µg/mL; that for `O=C(Cn1cnc([N+](=O)[O-])c1)Nc1ccc(F)c(Cl)c1` was 5 µg/mL (≈ 16.7 µM).
The value for `CSc1ncc(C(=O)Nc2ccccc2C)c(C)n1` was over 41 µg/mL; that for `COc1ccccc1CNCc1ccc(OC)c2ccccc12` was 33.7 µg/mL (≈ 110 µM); that for `CC12CS(=O)(=O)CC1SC(=S)N2Cc1ccccc1` (configuration not stated) was 44.2 µg/mL (≈ 141 µM).
The value for `O=c1c2ccccc2[nH]c(=S)n1CCCn1ccnc1` was 19.4 µg/mL (≈ 67.7 µM); that for `Cc1ccc(C23CC4CC(CC(C(=O)NC(C)C(=O)O)(C4)C2)C3)cc1` (configuration not stated) was over 51.2 µg/mL; that for `CCOC(=O)c1c(CCl)nc2ccccc2c1C.Cl` was 30.4 µg/mL.
`Cc1[nH]c2ccccc2c1CC#N`: the kinetic solubility came out at 21.3 µg/mL (≈ 125 µM).
To `COc1ccccc1N1CCN(C(=O)c2cc(S(=O)(=O)N3CCCCC3)ccc2C)CC1.Cl` belongs 68.1 µg/mL; to `O=C(NCc1cccnc1)Nc1ccc(Br)cc1`, over 45.9 µg/mL; to `O=C(NCC(=O)N1CCCC1)c1ccccc1F`, over 37.5 µg/mL.
The value for `CCN(CC)C1CCN(c2nc3nonc3nc2NCCOC)C1` (configuration not stated) was 46.8 µg/mL (≈ 140 µM).
